Each block holds one molecule with its values, some of them ahead of it.
How the values were obtained:
[1] = system: A549; assay: Antiproliferative activity against human A549 cells assessed as cell growth inhibition measured after 72 hrs by MTT assay; type: functional, cell-based; settings: A549, 72 h
[2] = system: HCT-116; assay: Antiproliferative activity against human HCT-116 cells assessed as cell growth inhibition measured after 72 hrs by MTT assay; type: functional, cell-based; settings: HCT-116, 72 h
[3] = system: MDA-MB-231; assay: Antiproliferative activity against human MDA-MB-231 cells assessed as cell growth inhibition measured after 72 hrs by MTT assay; type: functional, cell-based; settings: MDA-MB-231, 72 h
[4] = system: HepG2; assay: Antiproliferative activity against human HepG2 cells assessed as cell growth inhibition by MTT assay; type: functional, cell-based
[5] = Antiproliferative activity against human Lu1 cells assessed as cell growth inhibition by MTT assay; type: functional, cell-based
[6] = Antiproliferative activity against mouse […] cells assessed as cell growth inhibition by MTT assay; type: functional, cell-based
[7] = system: SW480; assay: Antiproliferative activity against human SW480 cells assessed as cell growth inhibition by MTT assay; type: functional, cell-based
[8] = system: MCF7; assay: Antiproliferative activity against human MCF7 cells assessed as cell growth inhibition measured after 48 hrs by SRB assay; type: functional, cell-based; settings: for IC50: MCF7, 48 h; for GI50: MCF7, time 48 hrs
[9] = system: HOP-62; assay: Antiproliferative activity against human HOP-62 cells assessed as cell growth inhibition measured after 48 hrs by SRB assay; type: functional, cell-based; settings: HOP-62, 48 h
[10] = system: SW-620; assay: Antiproliferative activity against human SW-620 cells assessed as cell growth inhibition measured after 48 hrs by SRB assay; type: functional, cell-based; settings: SW-620, 48 h
[11] = system: OVCAR-3; assay: Antiproliferative activity against human OVCAR-3 cells assessed as cell growth inhibition measured after 48 hrs by SRB assay; type: functional, cell-based; settings: OVCAR-3, 48 h
[12] = system: OVCAR-4; assay: Antiproliferative activity against human OVCAR-4 cells assessed as cell growth inhibition measured after 48 hrs by SRB assay; type: functional, cell-based; settings: OVCAR-4, 48 h
[13] = system: 786-0; assay: Antiproliferative activity against human 786-0 cells assessed as cell growth inhibition measured after 48 hrs by SRB assay; type: functional, cell-based; settings: 786-0, 48 h
[14] = system: UO-31; assay: Antiproliferative activity against human UO-31 cells assessed as cell growth inhibition measured after 48 hrs by SRB assay; type: functional, cell-based; settings: UO-31, 48 h
[15] = system: MDA-MB-231; assay: Antiproliferative activity against human MDA-MB-231 cells assessed as cell growth inhibition measured after 48 hrs by SRB assay; type: functional, cell-based; settings: for IC50: MDA-MB-231, 48 h; for GI50: MDA-MB-231, time 48 hrs
[16] = system: Hs-578T; assay: Antiproliferative activity against human Hs-578T cells assessed as cell growth inhibition measured after 48 hrs by SRB assay; type: functional, cell-based
[17] = system: SNB-75; assay: Antiproliferative activity against human SNB-75 cells assessed as cell growth inhibition measured after 48 hrs by SRB assay; type: functional, cell-based; settings: SNB-75, 48 h
[18] = system: HCT-116; assay: Cytotoxicity against human HCT-116 cells assessed as cell growth inhibition measured after 48 hrs by MTT assay; type: functional, cell-based; settings: HCT-116, 48 h
[19] = system: HepG2; assay: Cytotoxicity against human HepG2 cells assessed as cell growth inhibition measured after 48 hrs by MTT assay; type: functional, cell-based; settings: HepG2, 48 h
[20] = system: MCF7; assay: Cytotoxicity against human MCF7 cells assessed as cell growth inhibition measured after 48 hrs by MTT assay; type: functional, cell-based; settings: MCF7, 48 h
[21] = Cytotoxicity against human RPE-1 cells assessed as cell growth inhibition measured after 48 hrs by MTT assay; type: toxicity, cell-based; settings: RPE-1 (TERT-RPE1) cells
[22] = system: ASPC1; assay: Anticancer activity against human ASPC1 cells assessed as cell growth inhibition measured after 72 hrs by Cell-Titre Glo luminescent cell viability assay; type: functional, cell-based; settings: ASPC1, 72 h
[23] = system: SW1990; assay: Anticancer activity against human SW1990 cells assessed as cell growth inhibition measured after 72 hrs by Cell-Titre Glo luminescent cell viability assay; type: functional, cell-based; settings: SW1990, 72 h
[24] = system: MCF7; assay: Antiproliferative activity against human MCF7 cells assessed as cell growth inhibition by MTT assay; type: functional, cell-based
[25] = system: COLO 205; assay: Antiproliferative activity against human COLO 205 cells assessed as cell growth inhibition by MTT assay; type: functional, cell-based
[26] = system: A549; assay: Antiproliferative activity against human A549 cells assessed as cell growth inhibition by MTT assay; type: functional, cell-based
[27] = system: HeLa; assay: Antiproliferative activity against human HeLa cells assessed as cell growth inhibition by MTT assay; type: functional, cell-based
[28] = system: MDA-MB-231; assay: Antiproliferative activity against human MDA-MB-231 cells assessed as cell growth inhibition by MTT assay; type: functional, cell-based
[29] = system: MCF7; assay: Anticancer activity against human MCF7 cells assessed as cell growth inhibition measured after 24 hrs by MTT assay; type: functional, cell-based; settings: MCF7, 24 h
[30] = Cytotoxicity against human HFB4 cells assessed as cell growth inhibition measured after 24 hrs by MTT assay; type: toxicity, cell-based
[31] = target: Urokinase-type plasminogen activator (Homo sapiens, UniProt P00749); assay: Inhibition of urokinase plasminogen activator in human MCF7 cells measured after 24 hrs by ELISA method; type: cell-based
[32] = system: A549; assay: Cytotoxicity against human A549 cells assessed as cell growth inhibition measured after 24 hrs by MTT assay; type: functional, cell-based; settings: A549, 24 h, pooled result: one value given for 4 cell lines, strains, targets or settings
[33] = system: MCF7; assay: Cytotoxicity against human MCF7 cells assessed as cell growth inhibition measured after 72 hrs by MTT assay; type: functional, cell-based; settings: MCF7, 72 h
[34] = system: MDA-MB-231; assay: Cytotoxicity against human MDA-MB-231 cells assessed as cell growth inhibition measured after 72 hrs by MTT assay; type: functional, cell-based; settings: MDA-MB-231, 72 h
[35] = system: HepG2; assay: Cytotoxicity against human HepG2 cells assessed as cell growth inhibition measured after 72 hrs by MTT assay; type: functional, cell-based; settings: HepG2, 72 h
[36] = system: HeLa; assay: Cytotoxicity against human HeLa cells assessed as cell growth inhibition measured after 72 hrs by MTT assay; type: functional, cell-based; settings: pooled result: one value given for 3 cell lines, strains, targets or settings

IC50 [1]: 7.1 µM
IC50 [2]: 7.1 µM
IC50 [3]: 7.1 µM
Compound: OC(CN1CCCCC1)Cn1c2ccc(Cl)cc2c2cc(Cl)ccc21 (stereo not drawn)

IC50 [4]: 3.99 µM
IC50 [7]: 3.99 µM
Compound: COc1cc2c(cc1C)c1ccccc1n2CC(O)CN1CCN(C)CC1 (stereo not drawn)
IC50 [5]: 3.99 µM
IC50 [6]: 3.99 µM

IC50 [8]: 1.71 µM
IC50 [10]: 1.71 µM
IC50 [11]: 1.71 µM
IC50 [12]: 1.71 µM
IC50 [13]: 1.71 µM
IC50 [15]: 1.71 µM
Compound: Cc1c2ccncc2c(C(=O)NCc2ccccc2)c2c1[nH]c1ccccc12
IC50 [9]: 1.71 µM
IC50 [14]: 1.71 µM
IC50 [16]: 1.71 µM
IC50 [17]: 1.71 µM

Compound: CCn1c2ccccc2c2cc(NC(=O)c3c(N)n[nH]c3Nc3ccccc3)ccc21
IC50 [18]: 2.97 µM
IC50 [19]: 2.97 µM
IC50 [20]: 2.97 µM
IC50 at 48 h [21]: > 100 µM

IC50 [22]: 3.42 µM
IC50 [23]: 3.42 µM
Compound: CCCCn1c2ccc(Br)cc2c2cc(/C=N/NC(=O)c3ccncc3)ccc21

IC50 [4]: 3.99 µM
IC50 [7]: 3.99 µM
Compound: CCN1CCN(CC(O)Cn2c3ccccc3c3cc(C)c(OC)cc32)CC1 (stereo not drawn)
IC50 [5]: 3.99 µM
IC50 [6]: 3.99 µM

Compound: CCn1c2ccccc2c2cc(NC(=O)c3cc4cccc(OC)c4oc3=O)ccc21
IC50 [18]: 0.9 µM
IC50 [19]: 0.9 µM
IC50 [20]: 0.9 µM
IC50 at 48 h [21]: > 100 µM

IC50 [8]: 1.25 µM
IC50 [10]: 1.25 µM
IC50 [11]: 1.25 µM
IC50 [12]: 1.25 µM
IC50 [13]: 1.25 µM
IC50 [15]: 1.25 µM
Compound: Cc1c2ccncc2c(/C=C/C(C)NC=O)c2c1[nH]c1ccccc12 (stereo not drawn)
IC50 [9]: 1.25 µM
IC50 [14]: 1.25 µM
IC50 [16]: 1.25 µM
IC50 [17]: 1.25 µM

Compound: CCn1c2ccccc2c2cc(NC(=O)c3cc4cc(Br)cc(Br)c4oc3=O)ccc21
IC50 [18]: 0.9 µM
IC50 [19]: 0.9 µM
IC50 [20]: 0.9 µM

GI50 [8]: < 10 µM
GI50 [15]: < 10 µM
Compound: O=C(Cn1c2ccccc2c2ccccc21)NNC(c1ccc(O)cc1)N1CCNCC1 (stereo not drawn)

IC50 [1]: 7.1 µM
IC50 [2]: 7.1 µM
IC50 [3]: 7.1 µM
Compound: CC1CCN(CC(O)Cn2c3ccc(Cl)cc3c3cc(Cl)ccc32)CC1 (stereo not drawn)

IC50 [24]: 0.1 µM
IC50 [25]: 0.1 µM
IC50 [26]: 0.1 µM
Compound: COc1ccc2[nH]c3c(C)cc(-c4cc(-c5ccc(C(F)(F)F)cc5F)nc(N)n4)c(C)c3c2c1

IC50 [27]: 5.4 µM
IC50 [28]: 5.4 µM
Compound: Oc1c(C(c2ccc(C(F)(F)F)cc2)N2CCCC2)ccc2[nH]c3ccccc3c12 (stereo not drawn)

IC50 [29]: 5.24 µM
IC50 [31]: 3.8 µM
Compound: O=[N+]([O-])c1coc(C2c3[nH]c4ccccc4c3C(c3cc([N+](=O)[O-])co3)c3[nH]c4ccccc4c32)c1 (stereo not drawn)
IC50 at 24 h [30]: 75.2 µM

Compound: COc1cc(-c2cc(-c3ccc4c(c3)c3ccccc3n4-c3nc(-c4ccc(Cl)cc4)ns3)on2)cc(OC)c1OCc1cc(-c2ccncc2)no1
IC50 [32]: 0.01 µM

IC50 [1]: 7.1 µM
IC50 [2]: 7.1 µM
IC50 [3]: 7.1 µM
Compound: CC1CCCCN1CC(O)Cn1c2ccc(Cl)cc2c2cc(Cl)ccc21 (stereo not drawn)

Compound: COc1cc(-c2cc(COc3c(OC)cc(-c4cc(-c5ccc6c(c5)c5ccccc5n6-c5nc(-c6ccc(Cl)cc6)ns5)on4)cc3OC)on2)cc(OC)c1OC
IC50 [32]: 0.021 µM

Compound: COc1cc(NC(=O)Nc2cc(C)c3[nH]c4ccc(Br)cc4c3c2C)cc(OC)c1OC
IC50 [33]: 1.93 µM
IC50 [34]: 1.93 µM
IC50 [35]: 1.93 µM
IC50 [36]: 1.93 µM

GI50 [8]: 8 µM
GI50 [15]: 4.7 µM
Compound: O=C(CCCn1c2ccc(Br)cc2c2cc(Br)ccc21)NCCN1CCNCC1
